Measured values reported in patent US20240174702A1, “SOLID FORMS OF A COMPOUND FOR […]” (Gilead Sciences, Inc., priority 2022, published 2024).

Columns and labels:
[1] = Dynamic vapor sorption (DVS) hygroscopicity; format: physicochemical; conditions: 25° C.
Procedure: Hygroscopicity was studied using dynamic vapor sorption (DVS, TA Q5000 SA, TA Instruments, New Castle, DE or DVS, DVS Intrinsic, Surface Measurement Systems, London, UK). A sample (2-20 mg) was placed in an aluminum DVS pan and loaded on the sample side of the twin pan balance. The water sorption and desorption were studied as a function of relative humidity (RH) at 25° C. In 10% RH increments, the relative humidity was increased from 5% RH to 95% RH and then decreased back to 5% (some cases from 0 to 90% RH and then decrease back to 0%). […] Data analysis was performed using Universal Analysis 2000 Version 4.7A (TA Instruments, New Castle, DE) for TA DVS runs and Microsoft Excel for SMS DVS runs.

[2] = Stability study: loss of purity over time by liquid chromatography; format: physicochemical
Procedure: Formula I amorphous material and Forms I, II, III and IV were examined for loss of purity over time as determined by liquid chromatography.
The sample preparations for the stability study are described as follows: • Formula I Amorphous: A sample of amorphous solids was placed at about 22° C. open to air and the purity was monitored over 3 days by liquid chromatography. • Formula I Form I: Samples of Formula I Form I were placed in sealed glass vials and placed in a chamber at about 40° C. and about 75% RH and the purity was periodically monitored by liquid chromatography. • Formula I Form II: Samples of Formula I Form II were placed in an open vial. The vial was placed inside a container alongside a saturated salt solution to provide a humidity of about 88% RH and sealed. The sealed container was then placed into a chamber at about 40° C. and the purity was periodically monitored by liquid chromatography. • Formula I Form III: Samples of Formula I Form […] and sealed. The sealed container was then placed into a chamber at about 40° C. and the purity was periodically monitored by liquid chromatography. • Formula I Form IV: Samples of Formula I Form IV were packaged at about 0% RH inside a PE bag and heat-sealed inside a foil pouch. The pouches were then placed in a chamber at about 40° C. and the purity was periodically monitored by liquid chromatography.

Compound: Cn1ccc2c([C@@H](c3cn(C45CC(C4)C5)nn3)N(C(=O)OCOP(=O)(O)O)c3cc(Cl)c4ncc(C#N)c(NCC(C)(C)C)c4c3)cccc2c1=O [Formula I α-Ketobutyrate Form B]
- DVS weight change ([1]; 0-90% RH): about 5.5%
- DVS weight change ([1]; 50-90% RH): about 2%

Compound: Cn1ccc2c([C@@H](c3cn(C45CC(C4)C5)nn3)N(C(=O)OCOP(=O)(O)O)c3cc(Cl)c4ncc(C#N)c(NCC(C)(C)C)c4c3)cccc2c1=O [Formula I Glycolate]
- DVS weight change ([1]; 0-90% RH): about 7.5%
- DVS weight change ([1]; 50-90% RH): about 2%

Compound: Cn1ccc2c([C@@H](c3cn(C45CC(C4)C5)nn3)N(C(=O)OCOP(=O)(O)O)c3cc(Cl)c4ncc(C#N)c(NCC(C)(C)C)c4c3)cccc2c1=O [Formula I Form IV]
- Formula I Purity Over Time (% purity) ([2]; About 40° C., about 0% RH, 0 days): 99.49 % purity
- Formula I Purity Over Time (% purity) ([2]; About 40° C., about 0% RH, 14 days): 99.44 % purity
- Formula I Purity Over Time (% purity) ([2]; About 40° C., about 0% RH, 28 days): 99.43 % purity

Compound: Cn1ccc2c([C@@H](c3cn(C45CC(C4)C5)nn3)N(C(=O)OCOP(=O)(O)O)c3cc(Cl)c4ncc(C#N)c(NCC(C)(C)C)c4c3)cccc2c1=O [Formula I Amorphous]
- Formula I Purity Over Time (% purity) ([2]; About 22° C., open to atmosphere, 0 days): 95.74 % purity
- Formula I Purity Over Time (% purity) ([2]; About 22° C., open to atmosphere, 1 day): 95.45 % purity
- Formula I Purity Over Time (% purity) ([2]; About 22° C., open to atmosphere, 2 days): 95.18 % purity
- Formula I Purity Over Time (% purity) ([2]; About 22° C., open to atmosphere, 3 days): 95.05 % purity

Compound: Cn1ccc2c([C@@H](c3cn(C45CC(C4)C5)nn3)N(C(=O)OCOP(=O)(O)O)c3cc(Cl)c4ncc(C#N)c(NCC(C)(C)C)c4c3)cccc2c1=O [Formula I Form II]
- Formula I Purity Over Time (% purity) ([2]; About 40° C., about 88% RH, 0 days): 98.78 % purity
- Formula I Purity Over Time (% purity) ([2]; About 40° C., about 88% RH, 1 day): 98.67 % purity
- Formula I Purity Over Time (% purity) ([2]; About 40° C., about 88% RH, 7 days): 98.64 % purity
- Formula I Purity Over Time (% purity) ([2]; About 40° C., about 88% RH, 14 days): 98.59 % purity
- loss of purity over time ([2]; compared to Formula I Form I or Formula I amorphous material): decreased loss of purity over time

Compound: Cn1ccc2c([C@@H](c3cn(C45CC(C4)C5)nn3)N(C(=O)OCOP(=O)(O)O)c3cc(Cl)c4ncc(C#N)c(NCC(C)(C)C)c4c3)cccc2c1=O [Formula I Pyruvate Form B]
- DVS weight change ([1]; 10-90% RH): about 4.3%
- DVS weight change ([1]; 50-90% RH): about 2.5%

Compound: Cn1ccc2c([C@@H](c3cn(C45CC(C4)C5)nn3)N(C(=O)OCOP(=O)(O)O)c3cc(Cl)c4ncc(C#N)c(NCC(C)(C)C)c4c3)cccc2c1=O [Formula I Form III]
- Formula I Purity Over Time (% purity) ([2]; About 40° C., about 27% RH, 0 days): 98.61 % purity
- Formula I Purity Over Time (% purity) ([2]; About 40° C., about 27% RH, 1 day): 98.58 % purity
- Formula I Purity Over Time (% purity) ([2]; About 40° C., about 27% RH, 7 days): 98.55 % purity
- Formula I Purity Over Time (% purity) ([2]; About 40° C., about 27% RH, 14 days): 98.50 % purity

Compound: Cn1ccc2c([C@@H](c3cn(C45CC(C4)C5)nn3)N(C(=O)OCOP(=O)(O)O)c3cc(Cl)c4ncc(C#N)c(NCC(C)(C)C)c4c3)cccc2c1=O [Formula I Form I]
- DVS weight change ([1]; RH 5-95%): about 9.5 weight percent
- Formula I Purity Over Time (% purity) ([2]; About 40° C., about 75% RH, 0 days): 99.13 % purity
- Formula I Purity Over Time (% purity) ([2]; About 40° C., about 75% RH, 7 days): 98.37 % purity
- Formula I Purity Over Time (% purity) ([2]; About 40° C., about 75% RH, 14 days): 97.97 % purity
- Formula I Purity Over Time (% purity) ([2]; About 40° C., about 75% RH, 28 days): 96.57 % purity
